According to patent US20260053886A1, “ANTICANCER AGENT” (The Trustees of Princeton University, priority 2022, published 2026):
Converted amounts (≈) assume the structure as drawn. “And” between values parts separate entries of the source, which are not always exact repeats. Identical values can stand only once. Like-named read-outs stand apart in the source and are kept apart here. Non-standard residues stand in square brackets, D forms with d. Residues, ends and D or L forms follow the SMILES beside them. Phe(βS-OH) = N[C@H](C(=O)O)[C@@H](O)c1ccccc1; NMeH = CN[C@@H](Cc1c[nH]cn1)C(=O)O; Hyp = O=C(O)[C@@H]1C[C@@H](O)CN1; NMeF = CN[C@@H](Cc1ccccc1)C(=O)O; NMeL = CN[C@@H](CC(C)C)C(=O)O; Dap = NC[C@H](N)C(=O)O; Sar = CNCC(=O)O

Legend:
[1] = test system: colon cancer cell line HCT116; assay: anticancer assay, growth inhibition, dose-response; format: cell-based
S. pombe = assay: effect on microbial growth (MIC)
P. aeruginosa PAO1 = assay: effect on microbial growth (MIC); format: cell-based
S. aureus Newman = assay: effect on microbial growth (MIC); format: cell-based
E. faecalis OG1RF = assay: effect on microbial growth (MIC); format: cell-based
S. cerevisiae = assay: effect on microbial growth (MIC)
V. cholerae = assay: effect on microbial growth (MIC)
B. subtilis 3610 = assay: effect on microbial growth (MIC); format: cell-based
M. luteus = assay: effect on microbial growth (MIC); format: cell-based
[2] = test system: breast cancer cell line MDA-MB-231; assay: anticancer assay, growth inhibition, dose-response; format: cell-based
S. epidermidis = assay: effect on microbial growth (MIC); format: cell-based
B. subtilis 168 = assay: effect on microbial growth (MIC)
E. coli K12 = assay: effect on microbial growth (MIC)
[3] = test system: momomycin production in S. rimosus Δrim::aprR; assay: induction of momomycin production (HR-HPLC-MS extracted ion chromatograms); format: cell-based; conditions: Streptomyces rimosus, 120 h, read-out: half-maximal elicitor concentration (EC50)
Method: A seed culture of S. rimosus Δrim::apr^R was inoculated in TSBY medium as described above, which was used to start fermentation cultures in 125 mL Erlenmeyer flasks with the final concentration of cells of 0.05% (w/v). Each flask contained 25 mL R4 medium, supplemented with various concentrations of elicitors or equal volumes of DMSO as control. After 5 d of cultivation at 30° C./250 rpm, the cultures were spun down and processed by solid phase extraction (SPE). Specifically, 5 mL of supernatant was filtered and loaded onto STRATA® C18-E column (Phenomenex, 55 μm, 70 Å, 50 mg), which had been activated with MeOH and equilibrated with H2O. The column was washed with 1 mL H2O and eluted by 1 mL MeOH. The samples in MeOH were dried in vacuo, resuspended in 50 μL MeCN in H2O, and subjected to HR-HPLC-MS analysis.
(§1) Separately, small-scale fermentation of S. rimosus Δrim::apr^R was performed as described above with the following concentrations of phytosphingosine: 0, 1.25, 2.5, 5, 10, 20, 40, 80, 160 μM. After 5 d, cells were collected by centrifugation (4000 g, 1 h) and the wet weight of pellets were measured.
Cell viability relative to DMSO-treated samples were graphed and fit to a dose-response curve in Prism 9 to obtain the IC50 value. In addition, culture supernatants were processed via SPE as described above and samples were subjected to HR-HPLC-MS analysis. […]

S. rimosus Δrim::aprR = assay: antimicrobial activity, cell viability (wet pellet weight) relative to DMSO; format: cell-based; conditions: Streptomyces rimosus, 120 h, read-out: half-maximal inhibitory concentration (IC50)
Method: as §1
Cell viability relative to DMSO-treated samples were graphed and fit to a dose-response curve in Prism 9 to obtain the IC50 value. In addition, culture supernatants were processed via SPE as described above and samples were subjected to HR-HPLC-MS analysis. The extracted ion chromatograms of momomycin were integrated and the data were graphed to represent the induction effect of phytosphingosine on momomycin production at different concentrations. All data points were taken from biological duplicates.

Structure (SMILES)	IC50 ([1]; colorectal carcinoma / colon cancer cell line HCT116, FIG. 2A, read-out: IC50)	IC50 ([1]; colorectal carcinoma HCT116, dose-response curve FIG. 2A) [µg/mL]	minimum inhibitory concentration (MIC) (S. pombe)	minimum inhibitory concentration (MIC) (P. aeruginosa PAO1)	minimum inhibitory concentration (MIC) (S. aureus Newman)	minimum inhibitory concentration (MIC) (E. faecalis OG1RF)	minimum inhibitory concentration (MIC) (S. cerevisiae)	minimum inhibitory concentration (MIC) (V. cholerae)	minimum inhibitory concentration (MIC) (B. subtilis 3610)	minimum inhibitory concentration (MIC) (M. luteus) [µg/mL]	IC50 ([2]; adenocarcinoma MDA-MB-231, FIG. 2B, read-out: IC50) [µM]	IC50 ([2]; adenocarcinoma MDA-MB-231, dose-response curve FIG. 2B) [µg/mL]	minimum inhibitory concentration (MIC) (S. epidermidis)	minimum inhibitory concentration (MIC) (B. subtilis 168)	minimum inhibitory concentration (MIC) (E. coli K12)	EC50 [3] [µM]	IC50 (S. rimosus Δrim::aprR) [µM]
CC(C)C[C@H]1C(=O)N(C)[C@@H](Cc2ccccc2)C(=O)N[C@@H](Cc2ccc(O)cc2)C(=O)N[C@@H]([C@@H](O)c2ccccc2)C(=O)N[C@@H](CC(=O)O)C(=O)N(C)CC(=O)N[C@@H](CN)C(=O)N2C[C@H](O)C[C@H]2C(=O)N[C@@H](CN)C(=O)N(C)[C@@H](Cc2ccccc2)C(=O)N(C)[C@@H](Cc2cnc[nH]2)C(=O)N1C [momomycin] (cyclo(D[Sar][Dap][Hyp][Dap][NMeF][NMeH][NMeL][NMeF]Y[Phe(βS-OH)]))	1.1 µM and ~1.1 µM	1.5	above 64 μg/mL	above 64 μg/mL	above 64 μg/mL	above 64 μg/mL	above 64 μg/mL	above 64 μg/mL	above 64 μg/mL	64 (≈ 45.8 µM)	1.2	1.7	above 64 μg/mL	above 64 μg/mL	above 64 μg/mL	–	–
CCCCCCCCCCCCCC[C@@H](O)[C@@H](O)[C@@H](N)CO [phytosphingosine]	–	–	–	–	–	–	–	–	–	–	–	–	–	–	–	16.9	37.8
